In the supplement of paper PMC10307832:

Tests used:
Assay in all cases: relative viability (nuclei count vs DMSO), 5 days (fraction); higher = more cells survive
[1] = system: ABC-1
In short: (§1)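 One day after seeding in 1536-well plates, lung cancer cell lines were dosed by pin tool. Dosing was either single-drug or a fixed anchor-drug dose plus five library-drug doses (not always all listed) in √10 steps. After 5 days, nuclei were stained in one fix-and-stain step and counted on 4× images, and relative viability is the nuclei count of treated wells over that of vehicle wells, given as the median of duplicate plates.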

[2] = system: ChaGo-K-1
In short: as §1

[3] = system: HCC-78
In short: as §1

[4] = system: HOP-62
In short: as §1

[5] = system: LCLC-97TM1
In short: as §1

[6] = system: LOU-NH91
In short: as §1

[7] = system: NCI-H1355
In short: as §1

[8] = system: NCI-H1437
In short: as §1

[9] = system: NCI-H1755
In short: as §1

[10] = system: NCI-H1792
In short: as §1

[11] = system: NCI-H2009
In short: as §1

[12] = system: NCI-H2023
In short: as §1

[13] = system: NCI-H2085
In short: as §1

[14] = system: NCI-H2170
In short: as §1

[15] = system: NCI-H23
In short: as §1

[16] = system: NCI-H2405
In short: as §1

[17] = system: NCI-H322M
In short: as §1

[18] = system: NCI-H441
In short: as §1

[19] = system: NCI-H650
In short: as §1

[20] = system: NCI-H727
In short: as §1

[21] = system: RERF-LC-KJ
In short: as §1

[22] = system: SK-MES-1
In short: as §1

[23] = system: UMC-11
In short: as §1

O=c1[nH]c2ccccc2n1C1CCN(CCCC(c2ccc(F)cc2)c2ccc(F)cc2)CC1 [Pimozide] + CS(=O)(=O)N1CCN(Cc2cc3nc(-c4cccc5[nH]ncc45)nc(N4CCOCC4)c3s2)CC1 [Pictilisib] (partner 1 µM)
relative viability ([1]; first compound 0.08 µM): 0.596
relative viability ([1]; first compound 0.253 µM): 0.84
relative viability ([1]; first compound 0.8 µM): 0.743
relative viability ([1]; first compound 2.53 µM): 0.589
relative viability ([1]; first compound 8 µM): 0.474
relative viability ([2]; first compound 0.08 µM): 0.636
relative viability ([2]; first compound 0.253 µM): 0.614
relative viability ([2]; first compound 0.8 µM): 0.694
relative viability ([2]; first compound 2.53 µM): 0.762
relative viability ([2]; first compound 8 µM): 0.569
relative viability ([3]; first compound 0.08 µM): 0.214
relative viability ([3]; first compound 0.253 µM): 0.244
relative viability ([3]; first compound 0.8 µM): 0.187
relative viability ([3]; first compound 2.53 µM): 0.19
relative viability ([3]; first compound 8 µM): 0.202
relative viability ([4]; first compound 0.08 µM): 0.687
relative viability ([4]; first compound 0.253 µM): 0.694
relative viability ([4]; first compound 2.53 µM): 0.687
relative viability ([4]; first compound 8 µM): 0.635
relative viability ([5]; first compound 0.08 µM): 0.194
relative viability ([5]; first compound 0.253 µM): 0.183
relative viability ([5]; first compound 0.8 µM): 0.225
relative viability ([5]; first compound 2.53 µM): 0.18
relative viability ([5]; first compound 8 µM): 0.119
relative viability ([6]; first compound 0.08 µM): 0.476
relative viability ([6]; first compound 0.253 µM): 0.489
relative viability ([6]; first compound 0.8 µM): 0.521
relative viability ([6]; first compound 2.53 µM): 0.546
relative viability ([6]; first compound 8 µM): 0.509
relative viability ([7]; first compound 0.08 µM): 0.371
relative viability ([7]; first compound 0.253 µM): 0.417
relative viability ([7]; first compound 0.8 µM): 0.436
relative viability ([7]; first compound 2.53 µM): 0.466
relative viability ([7]; first compound 8 µM): 0.357
relative viability ([8]; first compound 0.08 µM): 0.543
relative viability ([8]; first compound 0.253 µM): 0.464
relative viability ([8]; first compound 0.8 µM): 0.499
relative viability ([8]; first compound 2.53 µM): 0.421
relative viability ([8]; first compound 8 µM): 0.406
relative viability ([9]; first compound 0.08 µM): 0.438
relative viability ([9]; first compound 0.253 µM): 0.441
relative viability ([9]; first compound 0.8 µM): 0.418
relative viability ([9]; first compound 2.53 µM): 0.368
relative viability ([9]; first compound 8 µM): 0.307
relative viability ([10]; first compound 0.08 µM): 0.274
relative viability ([10]; first compound 0.253 µM): 0.292
relative viability ([10]; first compound 0.8 µM): 0.25
relative viability ([10]; first compound 2.53 µM): 0.26
relative viability ([10]; first compound 8 µM): 0.314
relative viability ([11]; first compound 0.08 µM): 0.853
relative viability ([11]; first compound 0.253 µM): 0.923
relative viability ([11]; first compound 0.8 µM): 0.786
relative viability ([11]; first compound 2.53 µM): 0.769
relative viability ([11]; first compound 8 µM): 0.575
relative viability ([12]; first compound 0.08 µM): 0.214
relative viability ([12]; first compound 0.253 µM): 0.24
relative viability ([12]; first compound 0.8 µM): 0.212
relative viability ([12]; first compound 2.53 µM): 0.223
relative viability ([12]; first compound 8 µM): 0.202
relative viability ([13]; first compound 0.08 µM): 0.446
relative viability ([13]; first compound 0.253 µM): 0.532
relative viability ([13]; first compound 0.8 µM): 0.525
relative viability ([13]; first compound 2.53 µM): 0.486
relative viability ([13]; first compound 8 µM): 0.415
relative viability ([14]; first compound 0.08 µM): 0.308
relative viability ([14]; first compound 0.253 µM): 0.382
relative viability ([14]; first compound 0.8 µM): 0.299
relative viability ([14]; first compound 2.53 µM): 0.326
relative viability ([14]; first compound 8 µM): 0.236
relative viability ([15]; first compound 0.08 µM): 0.589
relative viability ([15]; first compound 0.253 µM): 0.431
relative viability ([15]; first compound 0.8 µM): 0.448
relative viability ([15]; first compound 2.53 µM): 0.429
relative viability ([15]; first compound 8 µM): 0.468
relative viability ([16]; first compound 0.08 µM): 0.482
relative viability ([16]; first compound 0.253 µM): 0.371
relative viability ([16]; first compound 0.8 µM): 0.422
relative viability ([16]; first compound 2.53 µM): 0.42
relative viability ([16]; first compound 8 µM): 0.349
relative viability ([17]; first compound 0.253 µM): 0.509
relative viability ([17]; first compound 0.8 µM): 0.478
relative viability ([17]; first compound 2.53 µM): 0.482
relative viability ([17]; first compound 8 µM): 0.382
relative viability ([18]; first compound 0.08 µM): 0.593
relative viability ([18]; first compound 0.253 µM): 0.445
relative viability ([18]; first compound 0.8 µM): 0.491
relative viability ([18]; first compound 2.53 µM): 0.447
relative viability ([18]; first compound 8 µM): 0.344
relative viability ([19]; first compound 0.08 µM): 0.851
relative viability ([19]; first compound 0.253 µM): 0.852
relative viability ([19]; first compound 0.8 µM): 0.878
relative viability ([19]; first compound 2.53 µM): 0.92
relative viability ([19]; first compound 8 µM): 1.09
relative viability ([20]; first compound 0.08 µM): 0.367
relative viability ([20]; first compound 0.253 µM): 0.357
relative viability ([20]; first compound 0.8 µM): 0.389
relative viability ([20]; first compound 2.53 µM): 0.308
relative viability ([20]; first compound 8 µM): 0.434
relative viability ([21]; first compound 0.08 µM): 0.597
relative viability ([21]; first compound 0.253 µM): 0.524
relative viability ([21]; first compound 0.8 µM): 0.522
relative viability ([21]; first compound 2.53 µM): 0.505
relative viability ([21]; first compound 8 µM): 0.452
relative viability ([22]; first compound 0.08 µM): 0.305
relative viability ([22]; first compound 0.253 µM): 0.308
relative viability ([22]; first compound 0.8 µM): 0.36
relative viability ([22]; first compound 2.53 µM): 0.38
relative viability ([22]; first compound 8 µM): 0.341
relative viability ([23]; first compound 0.08 µM): 0.79
relative viability ([23]; first compound 0.253 µM): 0.804
relative viability ([23]; first compound 0.8 µM): 0.746
relative viability ([23]; first compound 2.53 µM): 0.699
relative viability ([23]; first compound 8 µM): 0.906
